Assay results taken from ChEMBL document CHEMBL4304837, “Discovery of Pyridazinone and Pyrazolo[1,5-a]pyridine Inhibitors of C-Terminal Src Kinase” (ACS Med Chem Lett, 2019).

Key:
[1] = molecular target: T1, Tyrosine-protein kinase ZAP-70 (Homo sapiens) (UniProt P43403); assay: Effect on ZAP70 phosphorylation in human Jurkat cells pre-incubated for 30 mins followed by anti-CD3/CD28 stimulation measured after 10 mins relative to control; assay type: cell-based
T1 sequence (whole entry): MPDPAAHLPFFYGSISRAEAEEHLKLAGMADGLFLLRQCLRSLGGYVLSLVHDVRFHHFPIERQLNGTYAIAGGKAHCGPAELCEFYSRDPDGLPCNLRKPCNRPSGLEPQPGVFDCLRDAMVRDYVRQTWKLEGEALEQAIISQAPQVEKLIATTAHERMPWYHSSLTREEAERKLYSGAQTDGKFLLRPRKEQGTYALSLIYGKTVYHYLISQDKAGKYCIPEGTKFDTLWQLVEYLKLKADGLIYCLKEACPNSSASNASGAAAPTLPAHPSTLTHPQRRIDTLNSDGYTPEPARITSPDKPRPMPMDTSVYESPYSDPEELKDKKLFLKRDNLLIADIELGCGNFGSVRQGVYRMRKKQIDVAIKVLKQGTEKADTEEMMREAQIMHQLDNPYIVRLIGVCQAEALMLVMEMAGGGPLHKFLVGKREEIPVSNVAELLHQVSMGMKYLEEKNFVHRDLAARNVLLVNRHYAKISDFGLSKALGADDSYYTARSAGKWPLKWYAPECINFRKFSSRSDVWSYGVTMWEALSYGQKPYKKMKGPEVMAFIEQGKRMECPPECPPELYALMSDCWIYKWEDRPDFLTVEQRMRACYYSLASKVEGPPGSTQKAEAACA

[2] = Metabolic stability in human liver microsomes assessed as compound remaining at 0.5 uM measured after 10 mins in presence of NADPH by LC-MS/MS analysis; assay type: ADME, Microsome; details: read-out: Stability
[3] = Metabolic stability in mouse liver microsomes assessed as compound remaining at 0.5 uM measured after 10 mins in presence of NADPH by LC-MS/MS analysis; assay type: ADME, Microsome; details: read-out: Stability
[4] = Drug metabolism in mouse liver microsomes assessed as oxidation at indazole ring by soft spot analysis; assay type: ADME, Microsome
[5] = Cmax in C57BL/6 mouse at 100 mg/kg, po; assay type: ADME, organism-based; parameters: dose 100 mg/kg, route oral; details: in vivo
Homo sapiens [6] = species: Homo sapiens; assay: Immunostimulatory activity in human CD4-positive T cells assessed as increase in OKT-induced IL-2 secretion pre incubated for 15 mins followed by co-culture with CHO cells over-expressing OKT and measured after 48 hrs by AlphaLisa assay; assay type: functional, cell-based
[7] = Effect on human CD4-positive T cell activation assessed as increase in IL-2 secretion preincubated for 15 mins followed by co-culture with CHO cells and measured after 48 hrs by AlphaLisa assay
[8] = Effect on human CD4-positive T cell activation assessed as increase in increase in CD4-positive T cells proliferation preincubated for 15 mins followed by co-culture with CHO cells and measured after 48 hrs by AlphaLisa assay; assay type: cell-based
[9] = Tmax in C57BL/6 mouse at 100 mg/kg, po; assay type: ADME, organism-based; details: in vivo
[10] = AUC in C57BL/6 mouse at 100 mg/kg, po; assay type: ADME, organism-based; details: in vivo
[11] = Half life in human liver microsomes at 0.5 uM measured up to 45 mins by LC-MS/MS analysis; assay type: ADME, Microsome
[12] = Half life in C57BL/6 mouse at 100 mg/kg, po; assay type: ADME, organism-based; details: in vivo
[13] = Half life in mouse liver microsomes at 0.5 uM measured up to 45 mins by LC-MS/MS analysis; assay type: ADME, Microsome
[14] = Drug concentration in C57BL/6 mouse at 100 mg/kg, po after 24 hrs; assay type: ADME, organism-based; details: in vivo, read-out: Ct
[15] = Protein binding in mouse serum assessed as unbound fraction measured up to 5 hrs by LC-MS/MS analysis relative to control; assay type: ADME, cell-free
Homo sapiens [16] = species: Homo sapiens; assay: Immunostimulatory activity in human CD4-positive T cells assessed as increase in OKT-induced increase in CD4-positive T cells proliferation pre incubated for 15 mins followed by co-culture with CHO cells over-expressing OKT and measured after 72 hrs by MTS assay; assay type: functional, cell-based
[17] = Protein binding in human serum assessed as unbound fraction measured up to 5 hrs by LC-MS/MS analysis relative to control; assay type: ADME, cell-free
[18] = Plasma concentration in C57BL/6 mouse at 100 mg/kg, po; assay type: ADME, organism-based; details: in vivo
[19] = Drug metabolism in mouse liver microsomes assessed as oxidation at […] group by soft spot analysis; assay type: ADME, Microsome
[20] = molecular target: Tyrosine-protein kinase Lck (Homo sapiens, UniProt P06239); assay: Inhibition of His-tagged/GST-tagged LCK (unknown origin) incubated for 1 hr by TR-FRET assay
Sequence of Tyrosine-protein kinase Lck (P06239 whole entry): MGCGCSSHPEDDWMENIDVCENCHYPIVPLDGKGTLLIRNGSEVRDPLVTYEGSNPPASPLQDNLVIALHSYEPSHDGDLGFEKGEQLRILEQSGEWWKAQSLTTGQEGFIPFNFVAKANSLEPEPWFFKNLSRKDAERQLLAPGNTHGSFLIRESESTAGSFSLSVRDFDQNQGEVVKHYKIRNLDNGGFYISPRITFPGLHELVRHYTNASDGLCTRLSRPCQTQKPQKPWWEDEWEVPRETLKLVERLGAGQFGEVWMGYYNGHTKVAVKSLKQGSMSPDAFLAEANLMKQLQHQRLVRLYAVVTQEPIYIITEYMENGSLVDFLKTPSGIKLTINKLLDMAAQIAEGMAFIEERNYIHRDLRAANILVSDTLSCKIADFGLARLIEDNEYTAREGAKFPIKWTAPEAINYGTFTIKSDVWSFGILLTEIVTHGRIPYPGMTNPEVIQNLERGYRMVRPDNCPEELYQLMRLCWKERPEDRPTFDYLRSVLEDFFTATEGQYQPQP

Structure (SMILES)	Emax [1] [%]	remaining at 10 min, 0.5 µM [2] [%]	remaining at 10 min, 0.5 µM [3] [%]	further results
CC(C)(C)NC(=O)N1CCC(n2nc(C(=O)Nc3ccc(NC(=O)c4cnn5ccccc45)c(Cl)c3)c3ccccc32)CC1	250	84	24	–
Cc1cc(NC(=O)c2nn(C3CCN(C(=O)NC(C)(C)C)CC3)c3ccccc23)ccc1NC(=O)c1cnn2ccccc12	190	72	10	Drug metabolism [4]: Metabolite_Detected
COc1ccc2c(C(=O)Nc3ccc(NC(=O)c4nn(C5CCN(C(=O)CC(C)(C)C#N)CC5)c5ccc(F)cc45)cc3Cl)cnn2c1	360	91	100	Cmax [5]: 19.3 µM; Activity (Homo sapiens [6]): Dose-dependent effect; Activity [7]: Non-Toxic; Activity [8]: Non-Toxic; Tmax [9]: 7 h; AUC [10]: 222 µM·h; half-life at 0.5 µM [11]: > 2 h; half-life [12]: 5.3 h; half-life at 0.5 µM [13]: > 2 h; concentration at 24 h [14]: 1.3 µM; Fu [15]: 0.3%; Activity (Homo sapiens [16]): Dose-dependent effect; Fu [17]: < 0.1%
COc1ccc2c(C(=O)Nc3ccc(NC(=O)c4nn(C5CCN(C(=O)NC(C)(C)C)CC5)c5ccccc45)cc3C)cnn2c1	220	80	2	–
COc1ccc2c(C(=O)Nc3ccc(NC(=O)c4nn(C5CCN(C(=O)NC(C)(C)C)CC5)c5ccc(F)cc45)cc3Cl)cnn2c1	210	85	99	half-life at 0.5 µM [11]: > 2 h; half-life at 0.5 µM [13]: 1.47 h; Fu [15]: < 0.2%; Fu [17]: 0.4%
CC(C)(C)NC(=O)N1CCC(n2nc(C(=O)Nc3ccc(NC(=O)c4cnn5ccccc45)cc3)c3ccccc32)CC1	240	71	21	–
Cc1cc(NC(=O)c2nn(C3CCN(C(=O)CC(C)(C)C#N)CC3)c3ccccc23)ccc1NC(=O)c1cnn2ccccc12	370	85	9	Drug metabolism [19]: Metabolite_Detected
COc1ccc2c(C(=O)Nc3ccc(NC(=O)c4nn(C)c5ccccc45)cc3C)cnn2c1	–	–	59	–
CC(C)(C)NC(=O)N1CC(Cn2nc(C(=O)Nc3ccc(-c4ccc(=O)[nH]n4)c(Cl)c3)c3ccccc32)C1	73	2	33	IC50 [20]: > 50 µM

The next lines start with results.

Emax [1] [%]	remaining at 10 min, 0.5 µM [2] [%]	remaining at 10 min, 0.5 µM [3] [%]	Structure (SMILES)	further results
180	65	15	CC(C)(C)NC(=O)N1CCC(n2nc(C(=O)Nc3ccc(-c4ccc(=O)[nH]n4)c(Cl)c3)c3ccccc32)CC1	–
350	53	78	CCc1cc(NC(=O)c2nn(C3CCN(C(=O)NC(C)(C)C)CC3)c3ccccc23)ccc1-c1n[nH]c(=O)cc1C	Cmax [5]: 17.3 µM; Tmax [9]: 0.3 h; AUC [10]: 51.5 µM·h; half-life at 0.5 µM [11]: 0.167 h; half-life [12]: 1.9 h; half-life at 0.5 µM [13]: 0.517 h; concentration at 24 h [14]: 0.001 µM; Fu [15]: 0.9%; concentration [18]: 8.7 µM; Fu [17]: 0.4%
280	72	1	CCc1cc(NC(=O)c2nn(C3CCN(C(=O)NC(C)(C)C)CC3)c3ccccc23)ccc1-c1cc(C)c(=O)[nH]n1	–
270	61	59	CCc1cc(NC(=O)c2nn(C3CCN(C(=O)NC(C)(C)C)CC3)c3ccccc23)ccc1-c1n[nH]c(=O)c(C)c1C	half-life at 0.5 µM [11]: 0.233 h; half-life at 0.5 µM [13]: 0.2 h; Fu [15]: 1%; Fu [17]: 0.5%
350	68	9	Cc1cc(=O)[nH]nc1-c1ccc(NC(=O)c2nn(C3CCN(C(=O)NC(C)(C)C)CC3)c3ccccc23)cc1Cl	–
